# The CheMixHub viscosity set
# ± gives the uncertainty stated by the source.
# Assay: xn = mol fraction of the nth substance listed
structure (smiles),measurement,setting,value
CC[N+](CC)(CC)CC.[OH-] + O,viscosity,"298.15 K, 101 kPa, x1 = 0.00313",0.9776 ± 0.017 mPa·s
same,viscosity,"298.15 K, 101 kPa, x1 = 0.0064",1.114 ± 0.02 mPa·s
same,viscosity,"298.15 K, 101 kPa, x1 = 0.01341",1.248 ± 0.023 mPa·s
same,viscosity,"298.15 K, 101 kPa, x1 = 0.02113",1.659 ± 0.031 mPa·s
same,viscosity,"298.15 K, 101 kPa, x1 = 0.02968",2.07 ± 0.039 mPa·s
same,viscosity,"298.15 K, 101 kPa, x1 = 0.03918",2.869 ± 0.056 mPa·s
same,viscosity,"298.15 K, 101 kPa, x1 = 0.04982",3.679 ± 0.073 mPa·s
same,viscosity,"303.15 K, 101 kPa, x1 = 0.00313",0.8738 ± 0.016 mPa·s
same,viscosity,"303.15 K, 101 kPa, x1 = 0.0064",0.9902 ± 0.018 mPa·s
same,viscosity,"303.15 K, 101 kPa, x1 = 0.01341",1.107 ± 0.02 mPa·s
same,viscosity,"303.15 K, 101 kPa, x1 = 0.02113",1.453 ± 0.027 mPa·s
same,viscosity,"303.15 K, 101 kPa, x1 = 0.02968",1.8 ± 0.034 mPa·s
same,viscosity,"303.15 K, 101 kPa, x1 = 0.03918",2.455 ± 0.048 mPa·s
same,viscosity,"303.15 K, 101 kPa, x1 = 0.04982",3.111 ± 0.062 mPa·s
same,viscosity,"313.15 K, 101 kPa, x1 = 0.00313",0.7149 ± 0.013 mPa·s
same,viscosity,"313.15 K, 101 kPa, x1 = 0.0064",0.8019 ± 0.014 mPa·s
same,viscosity,"313.15 K, 101 kPa, x1 = 0.01341",0.8902 ± 0.016 mPa·s
same,viscosity,"313.15 K, 101 kPa, x1 = 0.02113",1.144 ± 0.021 mPa·s
same,viscosity,"313.15 K, 101 kPa, x1 = 0.02968",1.399 ± 0.026 mPa·s
same,viscosity,"313.15 K, 101 kPa, x1 = 0.03918",1.856 ± 0.036 mPa·s
same,viscosity,"313.15 K, 101 kPa, x1 = 0.04982",2.313 ± 0.046 mPa·s
same,viscosity,"323.15 K, 101 kPa, x1 = 0.00313",0.6005 ± 0.011 mPa·s
same,viscosity,"323.15 K, 101 kPa, x1 = 0.0064",0.6598 ± 0.012 mPa·s
same,viscosity,"323.15 K, 101 kPa, x1 = 0.01341",0.7359 ± 0.013 mPa·s
same,viscosity,"323.15 K, 101 kPa, x1 = 0.02113",0.9278 ± 0.017 mPa·s
same,viscosity,"323.15 K, 101 kPa, x1 = 0.02968",1.121 ± 0.021 mPa·s
same,viscosity,"323.15 K, 101 kPa, x1 = 0.03918",1.45 ± 0.028 mPa·s
same,viscosity,"323.15 K, 101 kPa, x1 = 0.04982",1.779 ± 0.035 mPa·s
CCCC(=O)O + Cc1ccccc1N,viscosity,"303.15 K, 100 kPa, x2 = 0.0971",1.59 ± 0.05 mPa·s
same,viscosity,"303.15 K, 100 kPa, x2 = 0.1896",1.78 ± 0.06 mPa·s
same,viscosity,"303.15 K, 100 kPa, x2 = 0.2605",1.92 ± 0.06 mPa·s
same,viscosity,"303.15 K, 100 kPa, x2 = 0.3617",2.12 ± 0.07 mPa·s
same,viscosity,"303.15 K, 100 kPa, x2 = 0.4825",2.35 ± 0.07 mPa·s
same,viscosity,"303.15 K, 100 kPa, x2 = 0.5911",2.55 ± 0.08 mPa·s
same,viscosity,"303.15 K, 100 kPa, x2 = 0.6776",2.71 ± 0.08 mPa·s
same,viscosity,"303.15 K, 100 kPa, x2 = 0.7516",2.84 ± 0.09 mPa·s
same,viscosity,"303.15 K, 100 kPa, x2 = 0.8641",3.03 ± 0.09 mPa·s
same,viscosity,"308.15 K, 100 kPa, x2 = 0.0971",1.42 ± 0.04 mPa·s
same,viscosity,"308.15 K, 100 kPa, x2 = 0.1896",1.58 ± 0.05 mPa·s
same,viscosity,"308.15 K, 100 kPa, x2 = 0.2605",1.7 ± 0.05 mPa·s
same,viscosity,"308.15 K, 100 kPa, x2 = 0.3617",1.87 ± 0.06 mPa·s
same,viscosity,"308.15 K, 100 kPa, x2 = 0.4825",2.07 ± 0.06 mPa·s
same,viscosity,"308.15 K, 100 kPa, x2 = 0.5911",2.24 ± 0.07 mPa·s
same,viscosity,"308.15 K, 100 kPa, x2 = 0.6776",2.37 ± 0.07 mPa·s
same,viscosity,"308.15 K, 100 kPa, x2 = 0.7516",2.48 ± 0.08 mPa·s
same,viscosity,"308.15 K, 100 kPa, x2 = 0.8641",2.64 ± 0.08 mPa·s
same,viscosity,"313.15 K, 100 kPa, x2 = 0.0971",1.26 ± 0.04 mPa·s
same,viscosity,"313.15 K, 100 kPa, x2 = 0.1896",1.4 ± 0.04 mPa·s
same,viscosity,"313.15 K, 100 kPa, x2 = 0.2605",1.51 ± 0.05 mPa·s
same,viscosity,"313.15 K, 100 kPa, x2 = 0.3617",1.66 ± 0.05 mPa·s
same,viscosity,"313.15 K, 100 kPa, x2 = 0.4825",1.83 ± 0.06 mPa·s
same,viscosity,"313.15 K, 100 kPa, x2 = 0.5911",1.98 ± 0.06 mPa·s
same,viscosity,"313.15 K, 100 kPa, x2 = 0.6776",2.1 ± 0.07 mPa·s
same,viscosity,"313.15 K, 100 kPa, x2 = 0.7516",2.19 ± 0.07 mPa·s
same,viscosity,"313.15 K, 100 kPa, x2 = 0.8641",2.33 ± 0.07 mPa·s
same,viscosity,"318.15 K, 100 kPa, x2 = 0.0971",1.1 ± 0.04 mPa·s
same,viscosity,"318.15 K, 100 kPa, x2 = 0.1896",1.23 ± 0.04 mPa·s
same,viscosity,"318.15 K, 100 kPa, x2 = 0.2605",1.32 ± 0.04 mPa·s
same,viscosity,"318.15 K, 100 kPa, x2 = 0.3617",1.45 ± 0.05 mPa·s
same,viscosity,"318.15 K, 100 kPa, x2 = 0.4825",1.6 ± 0.05 mPa·s
same,viscosity,"318.15 K, 100 kPa, x2 = 0.5911",1.73 ± 0.05 mPa·s
same,viscosity,"318.15 K, 100 kPa, x2 = 0.6776",1.83 ± 0.06 mPa·s
same,viscosity,"318.15 K, 100 kPa, x2 = 0.7516",1.91 ± 0.06 mPa·s
same,viscosity,"318.15 K, 100 kPa, x2 = 0.8641",2.02 ± 0.06 mPa·s
CCOC(=O)C(=O)OCC + CC(C)=O,viscosity,"303.15 K, 101 kPa, x1 = 0.0571",0.381 ± 0.0042 mPa·s
same,viscosity,"303.15 K, 101 kPa, x1 = 0.1199",0.487 ± 0.0051 mPa·s
same,viscosity,"303.15 K, 101 kPa, x1 = 0.1893",0.599 ± 0.0061 mPa·s
same,viscosity,"303.15 K, 101 kPa, x1 = 0.2664",0.715 ± 0.0072 mPa·s
same,viscosity,"303.15 K, 101 kPa, x1 = 0.3527",0.844 ± 0.0084 mPa·s
same,viscosity,"303.15 K, 101 kPa, x1 = 0.4497",0.979 ± 0.0096 mPa·s
same,viscosity,"303.15 K, 101 kPa, x1 = 0.5602",1.123 ± 0.011 mPa·s
same,viscosity,"303.15 K, 101 kPa, x1 = 0.6858",1.274 ± 0.012 mPa·s
same,viscosity,"303.15 K, 101 kPa, x1 = 0.8308",1.453 ± 0.014 mPa·s
CC[N+](CC)(CC)CC.[OH-] + CC(=O)N(C)C,viscosity,"298.15 K, 101 kPa, x1 = 0.0216",1.19 mPa·s
same,viscosity,"298.15 K, 101 kPa, x1 = 0.0663",1.64 mPa·s
same,viscosity,"298.15 K, 101 kPa, x1 = 0.1133",2.08 mPa·s
same,viscosity,"298.15 K, 101 kPa, x1 = 0.1628",2.49 mPa·s
same,viscosity,"298.15 K, 101 kPa, x1 = 0.215",2.83 mPa·s
same,viscosity,"298.15 K, 101 kPa, x1 = 0.2422",2.99 mPa·s
same,viscosity,"298.15 K, 101 kPa, x1 = 0.2988",3.28 mPa·s
same,viscosity,"298.15 K, 101 kPa, x1 = 0.3899",3.63 mPa·s
same,viscosity,"298.15 K, 101 kPa, x1 = 0.4894",3.89 mPa·s
same,viscosity,"298.15 K, 101 kPa, x1 = 0.5986",4.08 mPa·s
same,viscosity,"298.15 K, 101 kPa, x1 = 0.7188",4.24 mPa·s
same,viscosity,"298.15 K, 101 kPa, x1 = 0.806",4.39 mPa·s
same,viscosity,"298.15 K, 101 kPa, x1 = 0.8995",4.59 mPa·s
same,viscosity,"303.15 K, 101 kPa, x1 = 0.0216",1.11 mPa·s
same,viscosity,"303.15 K, 101 kPa, x1 = 0.0663",1.54 mPa·s
same,viscosity,"303.15 K, 101 kPa, x1 = 0.1133",1.95 mPa·s
same,viscosity,"303.15 K, 101 kPa, x1 = 0.1628",2.33 mPa·s
same,viscosity,"303.15 K, 101 kPa, x1 = 0.215",2.66 mPa·s
same,viscosity,"303.15 K, 101 kPa, x1 = 0.2422",2.81 mPa·s
same,viscosity,"303.15 K, 101 kPa, x1 = 0.2988",3.09 mPa·s
same,viscosity,"303.15 K, 101 kPa, x1 = 0.3899",3.43 mPa·s
same,viscosity,"303.15 K, 101 kPa, x1 = 0.4894",3.69 mPa·s
same,viscosity,"303.15 K, 101 kPa, x1 = 0.5986",3.87 mPa·s
same,viscosity,"303.15 K, 101 kPa, x1 = 0.7188",4.04 mPa·s
same,viscosity,"303.15 K, 101 kPa, x1 = 0.806",4.18 mPa·s
same,viscosity,"303.15 K, 101 kPa, x1 = 0.8995",4.38 mPa·s
same,viscosity,"308.15 K, 101 kPa, x1 = 0.0216",1.03 mPa·s
same,viscosity,"308.15 K, 101 kPa, x1 = 0.0663",1.42 mPa·s
same,viscosity,"308.15 K, 101 kPa, x1 = 0.1133",1.79 mPa·s
same,viscosity,"308.15 K, 101 kPa, x1 = 0.1628",2.16 mPa·s
same,viscosity,"308.15 K, 101 kPa, x1 = 0.215",2.49 mPa·s
same,viscosity,"308.15 K, 101 kPa, x1 = 0.2422",2.64 mPa·s
same,viscosity,"308.15 K, 101 kPa, x1 = 0.2988",2.89 mPa·s
same,viscosity,"308.15 K, 101 kPa, x1 = 0.3899",3.23 mPa·s
same,viscosity,"308.15 K, 101 kPa, x1 = 0.4894",3.47 mPa·s
same,viscosity,"308.15 K, 101 kPa, x1 = 0.5986",3.63 mPa·s
same,viscosity,"308.15 K, 101 kPa, x1 = 0.7188",3.77 mPa·s
same,viscosity,"308.15 K, 101 kPa, x1 = 0.806",3.91 mPa·s
same,viscosity,"308.15 K, 101 kPa, x1 = 0.8995",4.11 mPa·s
same,viscosity,"313.15 K, 101 kPa, x1 = 0.0216",0.96 mPa·s
same,viscosity,"313.15 K, 101 kPa, x1 = 0.0663",1.32 mPa·s
same,viscosity,"313.15 K, 101 kPa, x1 = 0.1133",1.67 mPa·s
same,viscosity,"313.15 K, 101 kPa, x1 = 0.1628",2.01 mPa·s
same,viscosity,"313.15 K, 101 kPa, x1 = 0.215",2.33 mPa·s
same,viscosity,"313.15 K, 101 kPa, x1 = 0.2422",2.47 mPa·s
same,viscosity,"313.15 K, 101 kPa, x1 = 0.2988",2.72 mPa·s
same,viscosity,"313.15 K, 101 kPa, x1 = 0.3899",3.04 mPa·s
same,viscosity,"313.15 K, 101 kPa, x1 = 0.4894",3.27 mPa·s
same,viscosity,"313.15 K, 101 kPa, x1 = 0.5986",3.44 mPa·s
same,viscosity,"313.15 K, 101 kPa, x1 = 0.7188",3.59 mPa·s
same,viscosity,"313.15 K, 101 kPa, x1 = 0.806",3.76 mPa·s
same,viscosity,"313.15 K, 101 kPa, x1 = 0.8995",3.95 mPa·s
